Laboratory results reported in ChEMBL document CHEMBL1782021, “Synthesis of 2-aziridinyl phosphonates by modified Gabriel-Cromwell reaction and their antibacterial activities” (2011).

How the values were obtained:
Format in all cases: functional
[1] = system: Bacillus subtilis; experiment: Antibacterial activity against Bacillus subtilis assessed as diameter of zone of inhibition at 10 ug/disk after 24 hrs by disc diffusion assay; settings: read-out: DIZ
[2] = system: Brevundimonas; experiment: Antibacterial activity against Brevundimonas sp. isolate Fs30 at 10 ug/disk after 24 hrs by disc diffusion assay; settings: isolate Fs30, 24 h, read-out: DIZ
[3] = system: Kocuria; experiment: Antibacterial activity against Kocuria sp. isolate Fs24 at 10 ug/disk after 24 hrs by disc diffusion assay; settings: isolate Fs24, 24 h, read-out: DIZ
[4] = system: Escherichia coli; experiment: Antibacterial activity against Escherichia coli DH5[alpha] at 10 ug/disk after 24 hrs by disc diffusion assay; settings: read-out: DIZ
[5] = system: Gordonia sp.; experiment: Antibacterial activity against Gordonia sp. isolate Fs48 at 10 ug/disk after 24 hrs by disc diffusion assay; settings: Gordonia sp. (in: high G+C Gram-positive bacteria), isolate Fs48, 24 h; read-out: DIZ

Compound	zone of inhibition at 10 µg/disc [1] [mm]	zone of inhibition at 10 µg/disc [2] [mm]	zone of inhibition at 10 µg/disc [3] [mm]	zone of inhibition at 10 µg/disc [4] [mm]	zone of inhibition at 10 µg/disc [5] [mm]
CC1(C)S[C@@H]2[C@H](NC(=O)[C@H](N)c3ccccc3)C(=O)N2[C@H]1C(=O)O [AMPICILLIN]	17.3	10.7	47.7	16.7	
CN[C@@H]1[C@H](O[C@H]2[C@H](O[C@H]3[C@H](O)[C@@H](O)[C@H](N=C(N)N)[C@@H](O)[C@@H]3N=C(N)N)O[C@@H](C)[C@]2(O)C=O)O[C@@H](CO)[C@H](O)[C@H]1O [STREPTOMYCIN]	14	29.3	26	19.7	29
